Assay results reported in the supplement of paper PMC8633005.

What was measured:
Experiment in all cases: drug sensitivity score (DSS) (DSS (unitless, 0-50 scale)); higher = more sensitive (stronger viability inhibition); extreme values may be limits of the assay
Details in all cases: 72 h; culture: 2D
Bowes = system: Bowes
In short: (§1)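 Melanoma cell lines and patient-derived melanoma cultures at 1000–1500 cells per well were exposed in 2D, in 384-well plates, to a 527-compound oncology library at five concentrations spanning a 10,000-fold range for 72 h at 37 °C. CellTiter-Glo luminescence then measured viability. From dose-response curves fitted in the in-house Breeze software, a drug sensitivity score, a modified area-under-curve measure, was obtained.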

FM-MEL-2 = system: FM-MEL-2
In short: as §1

FM-MEL-3 = system: FM-MEL-3
In short: as §1

FM-MEL-6 = system: FM-MEL-6
In short: as §1

SK-MEL-28 = system: SK-MEL-28
In short: as §1

SK-MEL-2 = system: SK-MEL-2
In short: as §1

WM165 = system: WM165
In short: as §1

WM852 = system: WM852
In short: as §1

Row | SMILES | drug sensitivity score (Bowes) | drug sensitivity score (FM-MEL-2) | drug sensitivity score (FM-MEL-3) | drug sensitivity score (FM-MEL-6) | drug sensitivity score (SK-MEL-28) | drug sensitivity score (SK-MEL-2) | drug sensitivity score (WM165) | drug sensitivity score (WM852)
1 | CCN(CC)CCNC(=O)c1c(C)[nH]c(/C=C2\C(=O)Nc3ccc(-c4csc(-c5ccccc5)n4)cc32)c1C [Amcasertib] | 0.2 | 7.4 | 4.1 | 8.8 | 1.9 | 0 | 4.5 | 8.2
2 | O[C@H]1CC[C@H](Nc2ncc3nc(Nc4c(F)cc(F)cc4F)n([C@H]4CCOC4)c3n2)CC1 [Tanzisertib] | 0 | 0 | 0.1 | 0 | 0.8 | 0 | 0.1 | 0
3 | Nc1nc(Nc2ccc3c(c2)CC[C@@H](N2CCCC2)CC3)nn1-c1cc2c(nn1)-c1ccccc1CCC2 [BGB324] | 3.2 | 2.6 | 5 | 5.4 | 6.7 | 5.6 | 5.7 | 6.9
4 | COC(=O)c1ccc([C@H]2c3[nH]c4ccccc4c3C[C@H](C(=O)OC)N2C(=O)CCl)cc1 [RSL3] | 0 | 0 | 0 | 0 | 0 | 0 | 0 | 0
5 | CC[C@H](C)C(=O)O[C@H]1C[C@H](O)C=C2C=C[C@H](C)[C@H](CC[C@@H](O)C[C@@H](O)CC(=O)O)[C@H]21 [Pravastatin] | 0 | 0.8 | 0 | 0 | 0 | 0 | 0 | 0
6 | CNC(=O)c1ccccc1Nc1nc(Nc2ccc3c(c2OC)CCC[C@H](N2CCN(CCO)CC2)C3)ncc1Cl | 8.2 | 7.2 | 8.6 | 7.6 | 7.9 | 4.5 | 9.2 | 7.7
7 | CCc1cc2c(cc1N1CCC(N3CCOCC3)CC1)C(C)(C)c1[nH]c3cc(C#N)ccc3c1C2=O [Alectinib] | 0 | 0.6 | 0 | 0 | 0 | 0 | 0.2 | 0
8 | CO[C@@]12[C@H](COC(N)=O)C3=C(C(=O)C(C)=C(N)C3=O)N1C[C@@H]1N[C@@H]12 [Mitomycin C] | 3.1 | 0.2 | 3.5 | 0.8 | 1.9 | 2 | 6.2 | 0
9 | CCOCc1nc2c(N)nc3ccccc3c2n1CC(C)(C)O [Resiquimod] | 0.1 | 0 | 0 | 0.2 | 0 | 0 | 0 | 0.4
10 | COc1ccc(-c2nc(N3CCOCC3)c3sc(CN(C)c4ncc(C(=O)NO)cn4)cc3n2)cn1 [CUDC-907] | 22.5 | 33.1 | 36.9 | 32.8 | 28 | 33.1 | 38.5 | 20.8
11 | O=c1sn(-c2cccc3ccccc23)c(=O)n1Cc1ccccc1 [Tideglusib] | 0 | 0 | 0 | 0 | 0 | 0 | 0 | 0
12 | O=C1c2c(O)ccc(O)c2C(=O)c2c(NCCNCCO)ccc(NCCNCCO)c21 [Mitoxantrone] | 6.7 | 7.1 | 3.9 | 5.4 | 6.1 | 3.4 | 16.8 | 5.5
13 | Nc1ccn([C@@H]2O[C@H](CO)[C@@H](O)[C@@H]2O)c(=O)n1 [Cytarabine] | 0 | 1.9 | 9.3 | 7.2 | 12.1 | 2.4 | 15.7 | 0
14 | CNC(=O)c1cc(Oc2ccc(NC(=O)Nc3ccc(Cl)c(C(F)(F)F)c3)c(F)c2)ccn1 [Regorafenib] | 6.7 | 8.5 | 12.9 | 3.7 | 4.6 | 2.8 | 5.3 | 1.8
15 | CNC(=O)c1ccc(-c2cnc3ncc(Cc4ccc5ncccc5c4)n3n2)cc1F [Capmatinib] | 0 | 0 | 0 | 0 | 0 | 0 | 0 | 0
16 | O=C(O)C1(C(=O)O)CCC1.[NH2-].[NH2-].[Pt+2] [Carboplatin] | 0 | 0.9 | 2.8 | 7.8 | 3.2 | 2 | 10.2 | 0
17 | CCN(CC)CCCC(C)Nc1ccnc2cc(Cl)ccc12 (stereo unspecified) [Chloroquine] | 7 | 9.4 | 7.3 | 9.4 | 8.3 | 7 | 9.7 | 8.6
18 | CC(C)(C)Cn1c(N)nc2ccc(-c3[nH]c(C(C)(C)C)nc3-c3ccc(F)cc3)nc21 [Ralimetinib] | 0 | 5.4 | 6.1 | 0 | 2 | 0 | 2.9 | 1
19 | CN1CCN(CCOc2cc(OC3CCOCC3)c3c(Nc4c(Cl)ccc5c4OCO5)ncnc3c2)CC1 [Saracatinib] | 0.3 | 2.3 | 0.8 | 0.9 | 4 | 0 | 2.8 | 1.8
20 | CN1C(=O)N[C@H](Cc2c[nH]c3c(Cl)cccc23)C1=O [Necrostatin 2] | 0 | 0 | 0 | 0 | 0 | 0 | 0 | 0
21 | NC(=O)N1CCC(CC(=O)N2CCC([C@H]3c4ncc(Br)cc4CCc4cc(Cl)cc(Br)c43)CC2)CC1 [Lonafarnib] | 30.9 | 9.4 | 18.2 | 8.1 | 8.1 | 5.3 | 13 | 12.1

Row | SMILES | drug sensitivity score (Bowes) | drug sensitivity score (FM-MEL-2) | drug sensitivity score (FM-MEL-3) | drug sensitivity score (FM-MEL-6) | drug sensitivity score (SK-MEL-28) | drug sensitivity score (SK-MEL-2) | drug sensitivity score (WM165) | drug sensitivity score (WM852)
22 | Oc1nc(-c2ccc(C(F)(F)F)cc2)nc2c1CSCC2 [XAV-939] | 0 | 0 | 0 | 0 | 0 | 0 | 0 | 0
23 | COc1cc(N2CCN(C)CC2)ccc1Nc1nccc(-c2cn(C)c3cnccc23)n1 [AZ191] | 3.4 | 2.4 | 0.6 | 0 | 0 | 0 | 2.7 | 1.9
24 | CC(C)n1nc(-c2ccc3oc(N)nc3c2)c2c(N)ncnc21 [Sapanisertib] | 13.2 | 10.1 | 9 | 11.1 | 10.2 | 7.9 | 11.7 | 8.6
25 | CO[C@H](C(=O)[C@@H](O)[C@@H](C)O)[C@@H]1Cc2cc3cc(O[C@H]4C[C@@H](O[C@@H]5C[C@@H](O)[C@H](O)[C@@H](C)O5)[C@H](O)[C@@H](C)O4)c(C)c(O)c3c(O)c2C(=O)[C@H]1O[C@H]1C[C@@H](O[C@@H]2C[C@@H](O)[C@@H](O[C@@H]3C[C@](C)(O)[C@H](O)[C@@H](C)O3)[C@@H](C)O2)[C@H](O)[C@@H](C)O1 [Plicamycin] | 26.4 | 12.7 | 21.3 | 7.4 | 8.6 | 16.8 | 15.7 | 3.2
26 | CC(=O)c1cnc2ccc(-c3cc(Cl)c(O)c(Cl)c3)nc2c1N[C@H]1CC[C@H](CN(C)C)CC1 [OTS167] | 15.4 | 9.5 | 19 | 8 | 14.3 | 11.4 | 17.4 | 10.5
27 | c1cc(CN2CCCNCCNCCCNCC2)ccc1CN1CCCNCCNCCCNCC1 [Plerixafor] | 0 | 0 | 0 | 0 | 0 | 0 | 0 | 0
28 | CC(C)[C@H](C(=O)Nc1ccc(C(=O)NO)cc1)c1ccccc1 [AR-42] | 6 | 9.8 | 11.8 | 11.6 | 10.3 | 12.7 | 14 | 3.9
29 | C[C@]12CC[C@H](O)CC1=CC[C@@H]1[C@@H]2CC[C@]2(C)C(c3cccnc3)=CC[C@@H]12 [Abiraterone] | 0 | 0 | 0 | 0 | 0 | 0 | 0 | 0
30 | N#CCNC(=O)c1ccc(-c2ccnc(Nc3ccc(N4CCOCC4)cc3)n2)cc1 [Momelotinib] | 4.1 | 3.7 | 1.2 | 1.1 | 3.7 | 0.2 | 7.2 | 1.9
31 | COc1cc2c(cc1-c1c(C)noc1C)ncc1[nH]c(=O)n([C@H](C)c3ccccn3)c12 [I-BET151] | 4.6 | 5.2 | 4.7 | 5 | 3.1 | 0.3 | 8.7 | 0
32 | O=C(c1cccc(Cl)c1F)N1CCN(Cc2cccc(Nc3nccs3)n2)CC1 [MK-8745] | 5.7 | 0 | 0.1 | 0 | 0.4 | 0 | 5.7 | 7.5
33 | C[C@H]1C[C@@H](n2c(Nc3ccc(OC(F)(F)F)cc3)nc3cc(CCC(=O)O)ccc32)CC(C)(C)C1 | 0 | 0 | 4.5 | 0 | 0 | 0 | 0 | 0
34 | Cc1cc(OCc2nnc(SC3CCCC3)n2-c2cccnc2)ccc1-c1ccc(S(C)(=O)=O)cc1 [NMS-873] | 11.1 | 4.1 | 11.4 | 5 | 6.8 | 4.4 | 9.4 | 16.9
35 | CCOC(=O)C1=CCCC[C@H]1S(=O)(=O)Nc1ccc(F)cc1Cl [Resatorvid] | 0 | 0 | 0 | 0 | 0 | 0 | 0 | 0
36 | CC(C)(C#N)c1cc(Cn2cncn2)cc(C(C)(C)C#N)c1 [Anastrozole] | 0 | 0 | 0 | 0 | 0 | 0 | 0 | 0
37 | CN(C)C1CCN(C(=O)c2ccc(NC(=O)Nc3ccc(-c4nc(N5CCOCC5)nc(N5CCOCC5)n4)cc3)cc2)CC1 [Gedatolisib] | 12.6 | 6.1 | 9.8 | 9.4 | 9.5 | 10.6 | 14.8 | 7.5
38 | Cc1cc2c(F)c(Oc3ncnn4cc(OC[C@@H](C)O)c(C)c34)ccc2[nH]1 [Brivanib] | 0 | 0 | 0 | 0 | 0 | 0 | 0 | 0
39 | Clc1ccccc1C(c1ccccc1)(c1ccccc1)n1cccn1 [TRAM-34] | 0 | 0 | 0 | 0 | 0 | 0 | 0 | 0
40 | Cc1cc(-c2nc(-c3ccc(OC(F)(F)F)cc3)no2)nn1Cc1ccnc(N2CCN(C3CC3)CC2)c1 [BAY 87-2243] | 12.3 | 0.2 | 6.6 | 0 | 1.6 | 0 | 5.5 | 25.9
41 | C[C@H]1CN(C2COC2)CCN1c1ccc(Nc2cc(-c3ccnc(N4CCn5c(cc6c5CC(C)(C)C6)C4=O)c3CO)cn(C)c2=O)nc1 [GDC-0853] | 0 | 0 | 0 | 0 | 0 | 0 | 0 | 0
42 | O=C1CN2Cc3c(ccc(Cl)c3Cl)N=C2N1 [Anagrelide] | 9.6 | 0 | 1.8 | 0 | 0 | 0 | 0 | 0
